According to the NIST ThermoML archive (doi:10.1021/je400659p):

Columns and labels:
[1] = xn = mol fraction of the nth substance listed; conditions: 101 kPa, Liquid, Vibrating tube method
[2] = refractive index (Na D-line) (dimensionless); xn = mol fraction of the nth substance listed; conditions: 101 kPa, Liquid, Standard Abbe refractometry
[3] = 101 kPa, Liquid, Vibrating tube method
[4] = refractive index (Na D-line) (dimensionless); conditions: 101.33 kPa, Liquid, Standard Abbe refractometry

C1COCCO1 [1,4-dioxane] + CCn1cc[n+](C)c1.F[B-](F)(F)F
x2 = 0
Conditions | mass density, [1] [kg/m3] | refractive index, [2]
293.15 K | 1033.57 | –
298.15 K | 1027.92 | 1.4205
303.15 K | 1022.27 | 1.4171
313.15 K | 1010.91 | 1.4112
323.15 K | 999.49 | 1.4063
333.15 K | 987.97 | –
343.15 K | 976.37 | –
353.15 K | 964.63 | –

CCCCn1cc[n+](C)c1.F[B-](F)(F)F [1-butyl-3-methylimidazolium tetrafluoroborate] + OCCO
refractive index, [2]
Conditions | x1 = 0.0895 | x1 = 0.1758 | x1 = 0.3578 | x1 = 0.4397 | x1 = 0.6482 | x1 = 0.8121 | x1 = 1
298.15 K | 1.4276 | 1.4257 | 1.4231 | 1.4224 | 1.4217 | 1.4216 | 1.4215
303.15 K | 1.4258 | 1.4239 | 1.4216 | 1.4211 | 1.4205 | 1.4204 | 1.4202
313.15 K | 1.4231 | 1.4212 | 1.4188 | 1.4182 | 1.4178 | 1.4179 | 1.4179
323.15 K | 1.4203 | 1.4184 | 1.4159 | 1.4154 | 1.415 | 1.4152 | 1.4153

OCCO [1,2-ethanediol] + CCn1cc[n+](C)c1.F[B-](F)(F)F
x2 = 0
Conditions | mass density, [1] [kg/m3] | refractive index, [2]
293.15 K | 1113.45 | –
298.15 K | – | 1.43
303.15 K | 1106.45 | 1.4285
313.15 K | 1099.38 | 1.4258
323.15 K | 1092.24 | 1.4229
333.15 K | 1085 | –
343.15 K | 1077.65 | –
353.15 K | 1070.17 | –

CCCCn1cc[n+](C)c1.F[B-](F)(F)F [1-butyl-3-methylimidazolium tetrafluoroborate] + C1COCCO1
x1 = 1
Conditions | mass density, [1] [kg/m3] | refractive index, [2]
293.15 K | 1204.44 | –
298.15 K | 1200.89 | 1.4215
303.15 K | 1197.34 | 1.4202
313.15 K | 1190.27 | 1.4179
323.15 K | 1183.24 | 1.4153
333.15 K | 1176.25 | –
343.15 K | 1169.32 | –
353.15 K | 1162.44 | –

C1COCCO1 [1,4-dioxane]
Conditions | mass density, [3] [kg/m3] | refractive index, [4]
293.15 K | 1033.57 | –
298.15 K | 1027.92 | 1.4205
303.15 K | 1022.27 | 1.4171
313.15 K | 1010.91 | 1.4112
323.15 K | 999.49 | 1.4063
333.15 K | 987.97 | –
343.15 K | 976.37 | –
353.15 K | 964.63 | –

CCCCn1cc[n+](C)c1.F[B-](F)(F)F [1-butyl-3-methylimidazolium tetrafluoroborate]
Conditions | mass density, [3] [kg/m3] | refractive index, [4]
293.15 K | 1204.44 | –
298.15 K | 1200.89 | 1.4215
303.15 K | 1197.34 | 1.4202
313.15 K | 1190.27 | 1.4179
323.15 K | 1183.24 | 1.4153
333.15 K | 1176.25 | –
343.15 K | 1169.32 | –
353.15 K | 1162.44 | –

OCCO [1,2-ethanediol] + CCCCn1cc[n+](C)c1.F[B-](F)(F)F
[2], x2 = 0
Conditions | refractive index
298.15 K | 1.43
303.15 K | 1.4285
313.15 K | 1.4258
323.15 K | 1.4229

OCCO [1,2-ethanediol]
Conditions | mass density, [3] [kg/m3] | refractive index, [4]
293.15 K | 1113.45 | –
298.15 K | – | 1.43
303.15 K | 1106.45 | 1.4285
313.15 K | 1099.38 | 1.4258
323.15 K | 1092.24 | 1.4229
333.15 K | 1085 | –
343.15 K | 1077.65 | –
353.15 K | 1070.17 | –

CCn1cc[n+](C)c1.F[B-](F)(F)F [1-ethyl-3-methylimidazolium tetrafluoroborate]
Conditions | mass density, [3] [kg/m3] | refractive index, [4]
293.15 K | 1290.63 | –
298.15 K | 1286.82 | 1.4111
303.15 K | 1283.02 | 1.41
313.15 K | 1275.45 | 1.4073
323.15 K | 1267.97 | 1.4051
333.15 K | 1260.55 | –
343.15 K | 1253.18 | –
353.15 K | 1245.87 | –
